Results reported in the NIST ThermoML archive (doi:10.1021/acs.jced.8b01120).

Assay: xn = mol fraction of the nth substance listed
Details: 100 kPa, Liquid; for speed of sound: Single path-length method; for mass density: Vibrating tube method

CCCCCOC(C)=O [pentyl ethanoate] + CCCCN(CCCC)CCCC
Details | mass density, 293.15 K [kg/m3] | mass density, 298.15 K [kg/m3] | mass density, 303.15 K [kg/m3] | mass density, 308.15 K [kg/m3] | mass density, 313.15 K [kg/m3] | speed of sound, 293.15 K [m/s] | speed of sound, 298.15 K [m/s] | speed of sound, 303.15 K [m/s] | speed of sound, 308.15 K [m/s] | speed of sound, 313.15 K [m/s]
x2 = 0 | 876.248 | 871.32 | 865.782 | 860.581 | 855.357 | 1243 | 1220.7 | 1196.8 | 1174.2 | 1152.3
x2 = 0.0575 | 865.692 | 860.668 | 855.073 | 849.94 | 844.475 | 1244.2 | 1221.5 | 1197.8 | 1175.7 | 1153.7
x2 = 0.1106 | 856.436 | 851.526 | 846.117 | 841.075 | 835.813 | 1245.2 | 1222.5 | 1198.8 | 1177.2 | 1155.7
x2 = 0.2013 | 842.712 | 837.942 | 832.841 | 827.884 | 823.003 | 1247.7 | 1224.3 | 1201.8 | 1179.7 | 1158.8
x2 = 0.3229 | 827.693 | 823.116 | 818.312 | 813.425 | 808.951 | 1249.6 | 1227.8 | 1205.4 | 1184.1 | 1163.1
x2 = 0.4109 | 818.21 | 813.799 | 809.136 | 804.737 | 800.073 | 1251.4 | 1229.9 | 1207.8 | 1187.2 | 1167.2
x2 = 0.5032 | 809.565 | 805.278 | 800.772 | 796.389 | 791.981 | 1253.8 | 1232.5 | 1210.5 | 1190.4 | 1170
x2 = 0.6202 | 799.842 | 795.692 | 791.362 | 787.138 | 782.852 | 1255.6 | 1235 | 1214.6 | 1194.1 | 1174.1
x2 = 0.7403 | 791.114 | 787.079 | 782.913 | 778.804 | 774.698 | 1258.8 | 1238.5 | 1217.8 | 1198.2 | 1178.9
x2 = 0.8105 | 786.994 | 782.989 | 778.908 | 774.712 | 770.827 | 1259.7 | 1240.2 | 1219.9 | 1201 | 1181.2
x2 = 0.9205 | 780.619 | 776.717 | 772.741 | 768.959 | 764.799 | 1262.4 | 1243.1 | 1223 | 1204.5 | 1185.6

CCCCN(CCCC)CCCC [tributylamine] + CCCCOC(C)=O
Details | mass density, 293.15 K [kg/m3] | mass density, 298.15 K [kg/m3] | mass density, 303.15 K [kg/m3] | mass density, 308.15 K [kg/m3] | mass density, 313.15 K [kg/m3] | speed of sound, 293.15 K [m/s] | speed of sound, 298.15 K [m/s] | speed of sound, 303.15 K [m/s] | speed of sound, 308.15 K [m/s] | speed of sound, 313.15 K [m/s]
x1 = 0.0535 | 870.397 | 865.288 | 860.118 | 854.99 | 849.73 | 1214 | 1193.8 | 1175.2 | 1156 | 1132.7
x1 = 0.11 | 859.603 | 854.617 | 849.591 | 844.604 | 839.544 | 1217.1 | 1196.9 | 1178.2 | 1158.9 | 1135.7
x1 = 0.2003 | 844.278 | 839.544 | 834.725 | 829.963 | 825.128 | 1221.8 | 1201.9 | 1183.5 | 1163.8 | 1141.7
x1 = 0.3239 | 827.789 | 823.24 | 818.635 | 814.11 | 809.428 | 1228.3 | 1208.9 | 1189.5 | 1170.4 | 1148.8
x1 = 0.4004 | 818.98 | 814.604 | 810.171 | 805.768 | 801.312 | 1232.5 | 1212.3 | 1193.6 | 1174.4 | 1153.5
x1 = 0.502 | 809.109 | 804.828 | 800.541 | 796.282 | 791.968 | 1237.7 | 1217.4 | 1199.2 | 1180.1 | 1158.9
x1 = 0.592 | 801.571 | 797.439 | 793.26 | 789.105 | 784.862 | 1242.4 | 1222.7 | 1203.4 | 1185.3 | 1164.7
x1 = 0.7201 | 792.16 | 788.147 | 784.362 | 780.344 | 775.931 | 1249.1 | 1229.7 | 1210.9 | 1192 | 1171.8
x1 = 0.8002 | 787.449 | 783.513 | 779.542 | 775.588 | 771.559 | 1253.5 | 1233.7 | 1215 | 1195.9 | 1176.6
x1 = 0.9065 | 781.614 | 777.793 | 773.938 | 770.069 | 766.156 | 1259.1 | 1240 | 1220.6 | 1201.7 | 1183.1
x1 = 1 | 777.006 | 773.28 | 769.552 | 765.811 | 762.061 | 1264.2 | 1245.2 | 1226.2 | 1207.4 | 1188.8

CCCCN(CCCC)CCCC [tributylamine] + CCCOC(C)=O
Details | mass density, 293.15 K [kg/m3] | mass density, 298.15 K [kg/m3] | mass density, 303.15 K [kg/m3] | mass density, 308.15 K [kg/m3] | mass density, 313.15 K [kg/m3] | speed of sound, 293.15 K [m/s] | speed of sound, 298.15 K [m/s] | speed of sound, 303.15 K [m/s] | speed of sound, 308.15 K [m/s] | speed of sound, 313.15 K [m/s]
x1 = 0.0509 | 876.475 | 871.105 | 865.344 | 859.857 | 854.206 | 1193.8 | 1167.9 | 1148.6 | 1127.2 | 1105.2
x1 = 0.1204 | 861.989 | 856.798 | 851.275 | 845.985 | 840.603 | 1198.3 | 1173.2 | 1154.3 | 1132.9 | 1111.2
x1 = 0.2066 | 846.28 | 841.395 | 836.192 | 831.184 | 826.095 | 1205.3 | 1180.5 | 1161.6 | 1140.7 | 1119.1
x1 = 0.306 | 831.793 | 827.121 | 822.274 | 817.519 | 812.694 | 1212 | 1188.5 | 1169.1 | 1148.2 | 1127.6
x1 = 0.4043 | 819.864 | 815.394 | 810.785 | 806.239 | 801.63 | 1219.3 | 1196.3 | 1177 | 1156.6 | 1136
x1 = 0.5015 | 809.872 | 805.603 | 801.221 | 796.775 | 792.345 | 1226.3 | 1204.6 | 1185.2 | 1165.4 | 1144.9
x1 = 0.6007 | 801.215 | 797.082 | 792.841 | 788.618 | 784.342 | 1233.2 | 1212.4 | 1192.9 | 1172.6 | 1153.4
x1 = 0.7102 | 793.047 | 789.025 | 784.905 | 780.824 | 776.694 | 1241.2 | 1221.4 | 1201.8 | 1182.1 | 1162.6
x1 = 0.8007 | 787.307 | 783.381 | 779.377 | 775.39 | 771.367 | 1248.5 | 1228.5 | 1209.3 | 1190 | 1171.2
x1 = 0.9008 | 781.809 | 777.98 | 774.088 | 770.204 | 766.273 | 1255.7 | 1236.5 | 1217.8 | 1197.9 | 1179.1
x1 = 1 | 777.006 | 773.283 | 769.552 | 765.811 | 762.061 | 1264.2 | 1245.2 | 1226.2 | 1207.4 | 1188.8

CCCCN(CCCC)CCCC [tributylamine] + CCOC(C)=O
Details | mass density, 293.15 K [kg/m3] | mass density, 298.15 K [kg/m3] | mass density, 303.15 K [kg/m3] | mass density, 308.15 K [kg/m3] | mass density, 313.15 K [kg/m3] | speed of sound, 293.15 K [m/s] | speed of sound, 298.15 K [m/s] | speed of sound, 303.15 K [m/s] | speed of sound, 308.15 K [m/s] | speed of sound, 313.15 K [m/s]
x1 = 0.0502 | 886.034 | 880.238 | 874.248 | 868.137 | 862.077 | 1168.6 | 1146.5 | 1124.6 | 1102.3 | 1080.9
x1 = 0.104 | 872.134 | 866.571 | 860.881 | 854.773 | 848.939 | 1172.6 | 1152.6 | 1129.9 | 1108.7 | 1088.3
x1 = 0.2041 | 850.473 | 845.352 | 840.168 | 834.885 | 829.51 | 1182.8 | 1162.8 | 1140.7 | 1119.9 | 1098.8
x1 = 0.3022 | 834.126 | 829.336 | 824.418 | 819.471 | 814.442 | 1193.2 | 1172.8 | 1151.3 | 1131.6 | 1109.3
x1 = 0.402 | 820.855 | 816.274 | 811.568 | 806.892 | 802.143 | 1203.3 | 1182.8 | 1161.7 | 1141.7 | 1120.9
x1 = 0.5017 | 810.036 | 805.655 | 801.215 | 796.734 | 792.21 | 1213.4 | 1194 | 1172.7 | 1152.9 | 1132.9
x1 = 0.6003 | 801.163 | 796.948 | 792.639 | 788.358 | 784.016 | 1223 | 1203.8 | 1182.3 | 1163.6 | 1143.3
x1 = 0.7004 | 793.656 | 789.584 | 785.465 | 781.294 | 777.107 | 1233.6 | 1214.6 | 1193.2 | 1174.6 | 1154.3
x1 = 0.8009 | 787.308 | 783.362 | 779.404 | 775.399 | 771.342 | 1244 | 1224.7 | 1205.4 | 1185.6 | 1166.1
x1 = 0.9011 | 781.785 | 777.942 | 774.089 | 770.192 | 766.343 | 1253.8 | 1234.6 | 1215.4 | 1196.5 | 1177.7
x1 = 1 | 777.006 | 773.283 | 769.552 | 765.811 | 762.061 | 1264.2 | 1245.2 | 1226.2 | 1207.4 | 1188.8
